Paper PMC9775191, “A Subset Screen of the Compounds Australia Scaffold Library Identifies 7-Acylaminodibenzoxazepinones as Potent and Selective Hits for Anti-Giardia Drug Discovery” (Biomedicines, 2022)

test system: G. duodenalis BRIS/91/HEPU/1279; experiment: Primary Giardia screen at 10 µM (live-cell imaging, automated counting); format: cell-based, Giardia duodenalis; conditions: 24 h
Procedure, shortened: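 Percent growth versus 0.2% DMSO vehicle, background-corrected with media-only wells, is reported at 24 and 48 h from automated live-cell counts. Testing used 10 μM final in a 3% O2 atmosphere, with plate quality checked by Z' factor.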

With `O=C(NCc1ccco1)c1cnn2c1N[C@@H](c1ccc(Br)cc1)C[C@H]2C(F)(F)F` (relative stereo) [SN00783428] as the compound, how does the “Average % Inhibition 24h” value read?
Its value is 15.1%.

With `CCC1Cn2c(C(=O)NCCN(C)C3CCCCC3)cc3cccc(c32)O1` (stereo not shown) [SN00788158] as the compound, how does the “Average % Inhibition 24h” value read?
Its value is 13.9%.

With `Cc1ccc2c(c1)N=C(c1ccc(C)o1)N=C(c1cccs1)N2` [SN00785905] as the compound, how does the “Average % Inhibition 24h” value read?
The value was 15.2%.

same assay, conditions: 24 h, first singlicate assay

`O=C(NCc1ccco1)c1cnn2c1N[C@@H](c1ccc(Br)cc1)C[C@H]2C(F)(F)F` (relative stereo) [SN00783428] was tested. Which “% Inhibition n=1 24h” value did it give?
The value was 27.8%.

With `CCC1Cn2c(C(=O)NCCN(C)C3CCCCC3)cc3cccc(c32)O1` (stereo not shown) [SN00788158] as the compound, how does the “% Inhibition n=1 24h” value read?
The value was 11.2%.

Which “% Inhibition n=1 24h” value does the source give for `Cc1ccc2c(c1)N=C(c1ccc(C)o1)N=C(c1cccs1)N2` [SN00785905] here?
Its value is 22.4%.

same assay, conditions: 24 h, re-assessment

`O=C(NCc1ccco1)c1cnn2c1N[C@@H](c1ccc(Br)cc1)C[C@H]2C(F)(F)F` (relative stereo) [SN00783428] was tested. Which “% Inhibition n=2 24h” value did it give?
Its value is 2.5%.

For `CCC1Cn2c(C(=O)NCCN(C)C3CCCCC3)cc3cccc(c32)O1` (stereo not shown) [SN00788158], which “% Inhibition n=2 24h” value is on record?
The value was 16.5%.

With `Cc1ccc2c(c1)N=C(c1ccc(C)o1)N=C(c1cccs1)N2` [SN00785905] as the compound, how does the “% Inhibition n=2 24h” value read?
Its value is 8.0%.

same assay, conditions: 48 h

For `O=C(NCc1ccco1)c1cnn2c1N[C@@H](c1ccc(Br)cc1)C[C@H]2C(F)(F)F` (relative stereo) [SN00783428], which “Average % Inhibition 48h” value is on record?
Its value is 18.5%.

For `CCC1Cn2c(C(=O)NCCN(C)C3CCCCC3)cc3cccc(c32)O1` (stereo not shown) [SN00788158], which “Average % Inhibition 48h” value is on record?
The value was 53.7%.

With `Cc1ccc2c(c1)N=C(c1ccc(C)o1)N=C(c1cccs1)N2` [SN00785905] as the compound, how does the “Average % Inhibition 48h” value read?
Its value is 54.6%.

same assay, conditions: 48 h, first singlicate assay

Which “% Inhibition n=1 48h” value does the source give for `Cc1ccc(S(=O)(=O)n2ccn(C(=O)c3ccccc3C)c2=O)cc1` [SN00789027] here?
The value was 0.0%.

Which “% Inhibition n=1 48h” value does the source give for `Cc1nn(C(C)C)c(C)c1S(=O)(=O)N1CCN(C(=O)c2cccs2)CC1` [SN00790783] here?
The value was 3.8%.

Which “% Inhibition n=1 48h” value does the source give for `Cc1ccc(Cn2ccc3nc(N4CCCCC4)ncc3c2=O)cc1` [SN00802904] here?
The value was 15.1%.

`CC(C)CCNC(=O)C1(C)CCC(=O)N1CCCN1CCN(c2cccc(Cl)c2)CC1` (stereo not shown) [SN00784585] was tested. Which “% Inhibition n=1 48h” value did it give?
The value was 25.4%.

Which “% Inhibition n=1 48h” value does the source give for `CCCS(=O)(=O)N1CCc2c(c(-c3nnc(-c4ccc(F)cc4)o3)nn2C)C1` [SN00796867] here?
Its value is 0.0%.

Which “% Inhibition n=1 48h” value does the source give for `Cn1cc2c3c(cccc31)CN(C(=O)NC(C)(C)C)CC2` [SN00798578] here?
The value was 7.2%.

With `CCOc1ccccc1N1C(=O)C(=O)N(Cc2nc(C)no2)C1=O` [SN00774186] as the compound, how does the “% Inhibition n=1 48h” value read?
The value was 14.0%.

With `Cc1cc(Cl)ccc1OCCCC(=O)Nc1nc2ccccc2[nH]1` [SN00783684] as the compound, how does the “% Inhibition n=1 48h” value read?
Its value is 27.8%.

With `COC(=O)c1cn(CC(=O)NCc2cc3c(cc2C)OCCCO3)c2ccccc12` [SN00794141] as the compound, how does the “% Inhibition n=1 48h” value read?
The value was 14.4%.

How did the “% Inhibition n=1 48h” value turn out when `Cc1cc(C(=O)COC(=O)C2(O)CCCCC2)c(C)n1-c1c(C)n(C)n(-c2ccccc2)c1=O` [SN00773547] was run?
Its value is 1.1%.

`CCCc1nnc(C(=O)Nc2cccc(C(=O)NCc3c[nH]nc3C)c2)s1` [SN00790723] was tested. Which “% Inhibition n=1 48h” value did it give?
The value was 0.0%.

With `CC(=O)N1CCCN(C(=O)c2cnn(C(C)(C)C)c2C)CC1` [SN00778131] as the compound, how does the “% Inhibition n=1 48h” value read?
Its value is 0.0%.

For `CCCCn1c(=O)[nH]c2cc(-c3nc(-c4ccc(F)cc4)no3)ccc2c1=O` [SN00789403], which “% Inhibition n=1 48h” value is on record?
The value was 0.3%.

How did the “% Inhibition n=1 48h” value turn out when `O=C(NCc1ccccc1Cl)c1cc2n(n1)CCCN(Cc1ccc(F)cc1)C2=O` [SN00792328] was run?
Its value is 0.0%.

For `CSc1ccc(N2CC(C(=O)N3c4ccccc4CC3C)CC2=O)cc1` (stereo not shown) [SN00775126], which “% Inhibition n=1 48h” value is on record?
Its value is 0.0%.

With `Cc1ccccc1C(=O)N1CCC(Cc2nnc(-c3ccccc3)o2)CC1` [SN00799218] as the compound, how does the “% Inhibition n=1 48h” value read?
Its value is 12.0%.

For `Cc1cccc(-c2noc(C3CCCN3S(=O)(=O)c3ccc(C(C)(C)C)cc3)n2)c1` (stereo not shown) [SN00797487], which “% Inhibition n=1 48h” value is on record?
The value was 0.0%.

For `Cn1ncc2c1CCCC2NC(=O)N1CCCCC(N2CCCC2)C1` (stereo not shown) [SN00781466], which “% Inhibition n=1 48h” value is on record?
The value was 13.9%.

For `CN(CCCN)C(=O)c1ccc2c(=O)n3c(nc2c1)CCCCC3` [SN00785585], which “% Inhibition n=1 48h” value is on record?
Its value is 25.4%.

How did the “% Inhibition n=1 48h” value turn out when `CN(CC1CCOC1)C(=O)Cc1ccccc1` (stereo not shown) [SN00801209] was run?
Its value is 0.0%.

`Cc1ccc(COCc2nn(C)c3c2CN(C(=O)Nc2ccccc2)CC3)cc1` [SN00796435] was tested. Which “% Inhibition n=1 48h” value did it give?
The value was 0.0%.

For `O=C(NCc1ccco1)c1cnn2c1N[C@@H](c1ccc(Br)cc1)C[C@H]2C(F)(F)F` (relative stereo) [SN00783428], which “% Inhibition n=1 48h” value is on record?
The value was 35.3%.

`O=C1C(=O)N(C2CCCC2)C(=O)N1Cc1nc(-c2ccsc2)no1` [SN00774178] was tested. Which “% Inhibition n=1 48h” value did it give?
The value was 0.0%.

For `CCCCOC(=O)c1ccc(NC(=O)c2cc3c(=O)n(C)c(=O)n(C)c3n2CCC)cc1` [SN00772629], which “% Inhibition n=1 48h” value is on record?
The value was 16.7%.

For `Cc1nn(Cc2csc(-c3ccsc3)n2)c(C)c1S(=O)(=O)N1CCc2ccccc21` [SN00774089], which “% Inhibition n=1 48h” value is on record?
Its value is 7.1%.

With `COc1ccccc1C(=O)n1ccn(S(=O)(=O)c2ccc(C)cc2)c1=O` [SN00789029] as the compound, how does the “% Inhibition n=1 48h” value read?
The value was 6.3%.

`COc1ccc(-n2ccn(CC(=O)Nc3ccc(OC)cc3OC)c2=O)cc1` [SN00789162] was tested. Which “% Inhibition n=1 48h” value did it give?
Its value is 0.0%.

With `O=C(NCCc1ccccc1)N1CCCC1c1nc(-c2ccccc2)no1` (stereo not shown) [SN00797440] as the compound, how does the “% Inhibition n=1 48h” value read?
The value was 0.0%.

For `Cc1ccc(S(=O)(=O)N2CCC3(CC2)NCCN=C3NC2CCCCCC2)c(C)c1` [SN00796055], which “% Inhibition n=1 48h” value is on record?
Its value is 0.0%.

How did the “% Inhibition n=1 48h” value turn out when `COc1ccccc1OCCNC(=O)Cn1ccc2c(c(C)nn2-c2ccccc2)c1=O` [SN00797916] was run?
The value was 27.1%.

Which “% Inhibition n=1 48h” value does the source give for `COc1ccc(S(=O)(=O)N2CCCC(C)(C(=O)NCc3ccc(F)cc3)C2)cc1` (stereo not shown) [SN00795932] here?
The value was 8.4%.

Which “% Inhibition n=1 48h” value does the source give for `CCCS(=O)(=O)c1nc2ccc(NS(=O)(=O)CCc3ccccc3)cc2s1` [SN00797950] here?
Its value is 20.2%.

For `CCN1CCN(c2ccc3nnc(C(C)C)n3n2)CC1` [SN00803240], which “% Inhibition n=1 48h” value is on record?
The value was 0.4%.

How did the “% Inhibition n=1 48h” value turn out when `CC1(C(=O)NC2CCCC2)Cn2c(ccc2-c2ccco2)C(=O)N1c1cccc(F)c1` (stereo not shown) [SN00787693] was run?
Its value is 11.7%.

Which “% Inhibition n=1 48h” value does the source give for `c1ccc(-n2nnnc2Oc2ccc(-c3nc4ccccc4s3)cc2)cc1` [SN00775768] here?
The value was 19.1%.

For `CCC1Cn2c(C(=O)NCCN(C)C3CCCCC3)cc3cccc(c32)O1` (stereo not shown) [SN00788158], which “% Inhibition n=1 48h” value is on record?
The value was 54.5%.

Which “% Inhibition n=1 48h” value does the source give for `Cc1ccc2c(c1)N=C(c1ccc(C)o1)N=C(c1cccs1)N2` [SN00785905] here?
The value was 69.6%.

same assay, conditions: 48 h, re-assessment

Which “% Inhibition n=2 48h” value does the source give for `O=C(NCc1ccco1)c1cnn2c1N[C@@H](c1ccc(Br)cc1)C[C@H]2C(F)(F)F` (relative stereo) [SN00783428] here?
The value was 1.8%.

Which “% Inhibition n=2 48h” value does the source give for `CCC1Cn2c(C(=O)NCCN(C)C3CCCCC3)cc3cccc(c32)O1` (stereo not shown) [SN00788158] here?
Its value is 52.9%.

For `Cc1ccc2c(c1)N=C(c1ccc(C)o1)N=C(c1cccs1)N2` [SN00785905], which “% Inhibition n=2 48h” value is on record?
Its value is 39.6%.
